{"source": "patent US12274705B2", "about": "“Composition comprising CYP4A-inhibiting compound as active ingredient for preventing or treating metabolic diseases” (Korea Basic Science Institute, priority 2018, dated 2025)", "key": {"CYP4A (CYP4A11)": {"target": "T1, CYP4A (CYP4A11) (Homo sapiens, UniProt Q02928)", "T1 construct": "expressed in transfected cells; host or cells: HepG2 (human liver cell line), RIPA lysate", "T1 sequence (Q02928 5-519)": "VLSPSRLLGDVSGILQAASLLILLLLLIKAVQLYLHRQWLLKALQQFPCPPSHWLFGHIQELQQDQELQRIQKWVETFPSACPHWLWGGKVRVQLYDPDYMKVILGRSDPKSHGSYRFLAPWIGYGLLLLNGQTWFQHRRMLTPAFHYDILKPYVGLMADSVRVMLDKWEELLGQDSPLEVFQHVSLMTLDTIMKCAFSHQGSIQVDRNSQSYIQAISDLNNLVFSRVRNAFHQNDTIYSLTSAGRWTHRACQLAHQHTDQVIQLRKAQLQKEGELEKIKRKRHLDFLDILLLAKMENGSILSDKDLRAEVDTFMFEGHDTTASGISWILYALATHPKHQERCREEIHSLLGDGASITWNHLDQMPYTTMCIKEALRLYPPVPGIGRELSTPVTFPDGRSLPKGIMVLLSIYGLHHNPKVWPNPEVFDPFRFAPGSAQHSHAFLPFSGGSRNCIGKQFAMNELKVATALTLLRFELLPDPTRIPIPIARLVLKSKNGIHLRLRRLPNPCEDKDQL", "assay": "CYP4A activity inhibition, Luciferin-4A luminescence with CYP4A expressing HepG2 cell lysate", "assay_type": "biochemical", "conditions": "FIG. 1: all compounds at 5 μM; FIG. 2: by concentration; compared with HET0016", "description": "CYP4A11 DNA (GenBank: S67580.1) was transfected into HepG2 cells, a human liver cell line, and cultured in an incubator for 24 hours so that the protein was expressed. After that, cells were pulverized by adding RIPA buffer (20 mM Tris-HCl (pH 7.5), 150 mM NaCl, 1 mM Na2EDTA, 1 mM EGTA, 1% NP-40, 1% sodium deoxycholate, 2.5 mM sodium pyrophosphate, 1 mM b-glycerophosphate, 1 mM Na3VO4, 1 μg/ml leupeptin) to extract proteins, and then CYP4A activity experiment and compound screening were performed as follows. […]\nAfter putting it in the NADPH Regeneration system (20× sol.A, 100× sol.B in water, Cal. Number: D399, Thermo Fisher SCIENTIFIC), leave it at room temperature for 1 hour to allow the CYP4A reaction to occur sufficiently, and CYP4A reaction is finished by adding Luciferin Detection reagent, and induce a luminescence reaction to occur, and the reaction was carried out at room temperature for 20 minutes. The degree of inhibition of CYP4A activity was measured by comparing the luminescence values from each well with a microplate reader."}, "HepG2 cells [1]": {"tested_on": "HepG2 cells", "assay": "Active oxygen (ROS) scavenging ability under ER stress (H2DCFDA)", "assay_type": "cell-based, human", "conditions": "5 μM compound; for amount of ROS: Thapsigargin or Tunicamycin; for inhibition of ROS production and removal of ROS: Thapsigargin-treated group, compared with HET0016", "description": "After culturing HepG2 cells, a human liver cell line, in high-glucose DMEM medium (Dulbecco's modified Eagle's medium, glucose 25 mM) in the presence of 10% fetal bovine serum (FBS), an experiment was performed to measure the ability to remove reactive oxygen species by the following method.\nFirst, HepG2 cells were grown to 1×10^4 cells/well in a 96-well plate (black, clear bottom culture plate) by the above method, and then 5 μM of each compound screened in Example 1 was added and incubated for 6 hours. After adding thapsigargin or tunicamycin to induce endoplasmic reticulum stress, the reaction was put in an incubator for 24 hours. After that, 5 μM H2DCFDA (cell-permeant 2′,7′-dichlorodihydrofluorescein diacetate) was added and reacted for 30 minutes in an incubator at 37° C. Thereafter, after washing with PBS, it was placed in an incubator at 37° C. for 30 minutes and waited for luminescence to occur. Thereafter, fluorescence was measured with a microplate reader (Excitation: 488 nm, Emission: 508 nm)."}, "HepG2 cells [2]": {"tested_on": "HepG2 cells", "assay": "Glucose absorption promoting effect (2-NBDG uptake) under ER stress", "assay_type": "cell-based, human", "conditions": "5 μM compound", "description": "HepG2 cells, a human liver cell line, were cultured in a high-glucose DMEM (Dulbecco's modified Eagle's medium, glucose 25 mM) medium in the presence of 10% fetal bovine serum (FBS), and then glucose uptake experiments were performed as follows.\nFirst, HepG2 cells were grown to 1×10^4 cells/well in a 96-well plate (black, clear bottom culture plate) by the above method, and then 5 μM of each compound screened in Example 1 was added and incubated for 6 hours. Here, thapsigargin or tunicamycin, which induces endoplasmic reticulum stress, was added to hepatocytes, and then placed in an incubator at 37° C. for 24 hours to react. After that, insulin and 2-NBDG (2-(N-(7-Nitrobenz-2-oxa-1,3-diazol-4-yl)Amino)-2-Deoxyglucose) were added and reacted in an incubator at 37° C. for 3 hours, and after washing with PBS (phosphate buffered saline), fluorescence was measured with a microplate reader (Excitation: 488 nm, Emission: 508 nm)."}, "HepG2 cells [3]": {"tested_on": "HepG2 cells", "assay": "Fat accumulation inhibitory activity in hepatocytes (palmitate, Nile-Red)", "assay_type": "cell-based, human", "conditions": "5 μM compound; palmitate 72 hours; compared with positive control HET0016", "description": "After culturing HepG2 cells, a human liver cell line, in a high-concentration DMEM medium (Dulbecco's modified Eagle's medium, glucose 25 mM) containing 10% fetal bovine serum (FBS), an experiment was performed to measure fat accumulation by the following method.\nFirst, HepG2 cells were grown to 5×10^3 cells/well in a 96-well plate (black, clear bottom culture plate) by the above method, and 5 μM of each compound screened in Example 1 was added thereto, followed by incubation for 6 hours. Here, palmitate, a fatty acid that induces fat accumulation in hepatocytes, is added, and then placed in an incubator at 37° C. for 72 hours to react. Thereafter, 4% paraformaldehyde was added and reacted at room temperature for 15 minutes to fix, and then Nile-Red solution was added, light was blocked, and reaction was performed at 37° C. for 10 minutes. After the reaction time, fluorescence was measured with a microplate reader (Excitation: 530 nm, Emission: 635 nm)."}, "[4]": {"conditions": "Thapsigargin or Tunicamycin, compared with positive control HET0016"}, "[5]": {"conditions": "Tunicamycin-treated group, compared with HET0016"}}}
{"compound": "CC(=O)Nc1ccc(S(=O)(=O)N2CCN(c3ccnc4cc(Cl)ccc34)CC2)cc1", "note": "[#18-1, N-(4-((4-(7-chloroquinolin-4-yl)piperazin-1-yl)sulfonyl)phenyl)acetamide]", "values": [{"measurement": "CYP4A inhibitory ability (luminescence)", "setting": "CYP4A (CYP4A11)", "value": "particularly excellent among the selected compounds"}, {"measurement": "amount of ROS", "setting": "HepG2 cells [1]", "value": "significantly decreased"}, {"measurement": "inhibition of ROS production and removal of ROS", "setting": "HepG2 cells [1]", "value": "better inhibition of ROS production and removal of ROS than HET0016"}, {"measurement": "glucose absorption promoting effect (2-NBDG fluorescence)", "setting": "HepG2 cells [2]; [4]", "value": "significant to the same or higher degree than that of the positive control group (HET0016)"}, {"measurement": "glucose absorption promoting effect (2-NBDG fluorescence)", "setting": "HepG2 cells [2]; [5]", "value": "more effective in promoting glucose absorption than the known HET0016 compound"}, {"measurement": "fat accumulation in liver cells (Nile-Red fluorescence)", "setting": "HepG2 cells [3]", "value": "suppressed to a degree similar to that of the positive control group (HET0016)"}]}
{"compound": "CC(=O)Nc1ccc(S(=O)(=O)N2CCN(c3cc(C)nc4ccccc34)CC2)cc1", "note": "[#18-2, N-(4-((4-(2-methylquinolin-4-yl)piperazin-1-yl)sulfonyl)phenyl)acetamide]", "values": [{"measurement": "CYP4A inhibitory ability (luminescence)", "setting": "CYP4A (CYP4A11)", "value": "particularly excellent among the selected compounds"}, {"measurement": "amount of ROS", "setting": "HepG2 cells [1]", "value": "significantly decreased"}, {"measurement": "inhibition of ROS production and removal of ROS", "setting": "HepG2 cells [1]", "value": "better inhibition of ROS production and removal of ROS than HET0016"}, {"measurement": "glucose absorption promoting effect (2-NBDG fluorescence)", "setting": "HepG2 cells [2]; [4]", "value": "significant to the same or higher degree than that of the positive control group (HET0016)"}, {"measurement": "glucose absorption promoting effect (2-NBDG fluorescence)", "setting": "HepG2 cells [2]; [5]", "value": "more effective in promoting glucose absorption than the known HET0016 compound"}, {"measurement": "fat accumulation in liver cells (Nile-Red fluorescence)", "setting": "HepG2 cells [3]", "value": "suppressed to a degree similar to that of the positive control group (HET0016)"}]}
